According to ChEMBL document CHEMBL1629418, “Spiroimidazolidinone NPC1L1 inhibitors. Part 2: structure-activity studies and in vivo efficacy” (Bioorg Med Chem Lett, 2010):

Biological target: T1, NPC1-like intracellular cholesterol transporter 1 (Homo sapiens, UniProt Q9UHC9)
T1 sequence (Q9UHC9 whole entry): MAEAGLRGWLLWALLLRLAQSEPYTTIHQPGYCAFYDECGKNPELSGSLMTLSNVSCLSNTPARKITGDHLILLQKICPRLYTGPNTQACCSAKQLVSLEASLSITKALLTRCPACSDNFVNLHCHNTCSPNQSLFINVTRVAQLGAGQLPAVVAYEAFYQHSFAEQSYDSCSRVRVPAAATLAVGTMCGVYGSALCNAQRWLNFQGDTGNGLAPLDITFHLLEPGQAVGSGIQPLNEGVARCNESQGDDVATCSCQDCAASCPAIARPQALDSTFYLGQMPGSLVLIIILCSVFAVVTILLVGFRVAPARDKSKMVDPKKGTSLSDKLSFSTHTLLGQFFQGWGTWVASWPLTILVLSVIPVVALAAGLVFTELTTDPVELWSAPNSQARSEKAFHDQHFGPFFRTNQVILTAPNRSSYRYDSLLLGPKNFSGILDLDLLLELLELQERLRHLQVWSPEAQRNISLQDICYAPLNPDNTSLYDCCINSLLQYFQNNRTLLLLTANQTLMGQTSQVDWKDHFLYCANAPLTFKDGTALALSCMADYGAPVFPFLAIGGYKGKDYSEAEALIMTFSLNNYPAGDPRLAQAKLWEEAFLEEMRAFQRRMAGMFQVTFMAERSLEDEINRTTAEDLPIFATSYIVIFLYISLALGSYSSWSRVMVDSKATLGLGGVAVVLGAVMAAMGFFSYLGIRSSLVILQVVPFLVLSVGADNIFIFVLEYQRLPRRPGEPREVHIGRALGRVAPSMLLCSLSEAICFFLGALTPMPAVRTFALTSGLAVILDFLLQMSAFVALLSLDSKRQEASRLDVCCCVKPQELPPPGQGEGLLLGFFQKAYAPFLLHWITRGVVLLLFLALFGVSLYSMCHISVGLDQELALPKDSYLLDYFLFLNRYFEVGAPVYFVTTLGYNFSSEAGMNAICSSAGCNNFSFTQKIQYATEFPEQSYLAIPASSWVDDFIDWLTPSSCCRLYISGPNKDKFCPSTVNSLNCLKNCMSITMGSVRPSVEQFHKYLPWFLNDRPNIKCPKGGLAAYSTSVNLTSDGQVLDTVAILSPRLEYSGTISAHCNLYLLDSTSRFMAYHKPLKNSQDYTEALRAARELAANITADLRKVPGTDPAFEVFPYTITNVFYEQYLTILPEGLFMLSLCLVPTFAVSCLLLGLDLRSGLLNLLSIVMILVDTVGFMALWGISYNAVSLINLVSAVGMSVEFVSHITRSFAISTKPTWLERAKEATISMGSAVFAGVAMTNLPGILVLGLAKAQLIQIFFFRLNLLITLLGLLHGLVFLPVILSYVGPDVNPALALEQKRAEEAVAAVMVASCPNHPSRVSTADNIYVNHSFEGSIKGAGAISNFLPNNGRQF
Test: Displacement of [35S](2S,3S,4S,5R,6S)-6-(4-((2S,3R)-3-((S)-3-(4-fluorophenyl)-3-hydroxypropyl)-1-(4-(3-(methylsulfonamido)prop-1-ynyl)phenyl)-4-oxoazetidin-2-yl)phenoxy)-3,4,5-trihydroxytetrahydro-2H-pyran-2-carboxylic acid from human NCP1L1 expressed in HEK 293
Format: cell-based, HEK293

Row | SMILES | IC50
1 | CC(C)(C)c1ccc(C(=O)N2CCC3(CC2)C(=O)N(CC(=O)NCCCCCO)CN3c2ccccc2)cc1 | 3.8 µM
2 | CC(C)(C)c1ccc(C(=O)N2CCC3(CC2)C(=O)N(CC(=O)N2CCNCC2)CN3c2ccccc2)cc1 | 22 µM
3 | CC(C)(C)OC(=O)NC1CCN(C(=O)CN2CN(c3ccccc3)C3(CCN(C(=O)c4ccc(C(C)(C)C)cc4)CC3)C2=O)CC1 | 8.3 µM
4 | CC(C)(C)c1ccc(C(=O)N2CCC3(CC2)C(=O)N(CC(=O)NCCCN)CN3c2ccccc2)cc1 | 49 µM
5 | CC1(C)CC(OC(=O)CN2CN(c3ccccc3)C3(CCN(C(=O)c4ccc(C5CCCCC5)cc4)CC3)C2=O)CC(C)(C)N1 | 0.6 µM
6 | CC(C)(C)OC(=O)NCCCCCNC(=O)CN1CN(c2ccccc2)C2(CCN(C(=O)c3ccc(C(C)(C)C)cc3)CC2)C1=O | 3.1 µM
7 | CC(C)(C)c1ccc(C(=O)N2CCC3(CC2)C(=O)N(CC(=O)N2CCCC(CO)C2)CN3c2ccccc2)cc1 (centres undefined) | 8.2 µM
8 | CC(C)(C)OC(=O)NC1CCCN(C(=O)CN2CN(c3ccccc3)C3(CCN(C(=O)c4ccc(C(C)(C)C)cc4)CC3)C2=O)C1 (centres undefined) | 4.2 µM
9 | COC(=O)CCNC(=O)CN1CN(c2ccccc2)C2(CCN(C(=O)c3ccc(C4CCCCC4)cc3)CC2)C1=O | 4.5 µM
10 | CC(C)(C)c1ccc(C(=O)N2CCC3(CC2)C(=O)N(CC(=O)NCCCCNS(C)(=O)=O)CN3c2ccccc2)cc1 | 10.3 µM
11 | CCOC(=O)C1CCCN(C(=O)CN2CN(c3ccccc3)C3(CCN(C(=O)c4ccc(C5CCCCC5)cc4)CC3)C2=O)C1 (centres undefined) | 4.2 µM
12 | CC(C)(C)c1ccc(C(=O)N2CCC3(CC2)C(=O)N(CC(=O)N2CCCC(O)C2)CN3c2ccccc2)cc1 (centres undefined) | 12.2 µM
13 | CCOC(=O)C1CCCN(C(=O)CN2CN(c3ccccc3)C3(CCN(C(=O)c4ccc(C(C)(C)C)cc4)CC3)C2=O)C1 (centres undefined) | 8.2 µM
14 | CC(C)(C)c1ccc(C(=O)N2CCC3(CC2)C(=O)N(CC(=O)NCCNS(C)(=O)=O)CN3c2ccccc2)cc1 | 49 µM
15 | CCc1nn(CC)c(C2CCN(C(=O)CN3CN(c4ccccc4)C4(CCN(C(=O)c5ccc(C(C)(C)C)cc5)CC4)C3=O)CC2)c1CC | 4.6 µM
16 | CC(C)(C)c1ccc(C(=O)N2CCC3(CC2)C(=O)N(CC(=O)NCCO)CN3c2ccccc2)cc1 | 19.2 µM
17 | CC(C)(C)c1ccc(C(=O)N2CCC3(CC2)C(=O)N(CC(=O)N2CCCCC2CO)CN3c2ccccc2)cc1 (centres undefined) | 11.8 µM
18 | COC(=O)CCCNC(=O)CN1CN(c2ccccc2)C2(CCN(C(=O)c3ccc(C4CCCCC4)cc3)CC2)C1=O | 4.5 µM
19 | O=C(CN1CN(c2ccccc2)C2(CCN(C(=O)c3ccc(C4CCCCC4)cc3)CC2)C1=O)N1CCCCC1 | 1.1 µM
20 | CC(C)(C)c1ccc(C(=O)N2CCC3(CC2)C(=O)N(CC(=O)NCCCCN)CN3c2ccccc2)cc1 | 14 µM

Row | SMILES | IC50
21 | CC(C)(C)OC(=O)NCC1CCCN(C(=O)CN2CN(c3ccccc3)C3(CCN(C(=O)c4ccc(C5CCCCC5)cc4)CC3)C2=O)C1 (centres undefined) | 3.8 µM
22 | CCN(CC)C(=O)C1CCCN(C(=O)CN2CN(c3ccccc3)C3(CCN(C(=O)c4ccc(C5CCCCC5)cc4)CC3)C2=O)C1 (centres undefined) | 3.3 µM
23 | CC(C)(C)OC(=O)NCCNC(=O)CN1CN(c2ccccc2)C2(CCN(C(=O)c3ccc(C(C)(C)C)cc3)CC2)C1=O | 9.4 µM
24 | CC(C)(C)OC(=O)NC1CCN(C(=O)CN2CN(c3ccccc3)C3(CCN(C(=O)c4ccc(C5CCCCC5)cc4)CC3)C2=O)CC1 | 4.8 µM
25 | COC(=O)CNC(=O)CN1CN(c2ccccc2)C2(CCN(C(=O)c3ccc(C4CCCCC4)cc3)CC2)C1=O | 3.7 µM
26 | CCc1c(C)c(C2CCN(C(=O)CN3CN(c4ccccc4)C4(CCN(C(=O)c5ccc(C(C)(C)C)cc5)CC4)C3=O)CC2)nn1CC | 5.4 µM
27 | CC(C)(C)c1ccc(C(=O)N2CCC3(CC2)C(=O)N(CC(=O)N2CCC(O)CC2)CN3c2ccccc2)cc1 | 4.7 µM
28 | NCCNC(=O)CN1CN(c2ccccc2)C2(CCN(C(=O)c3ccc(C4CCCCC4)cc3)CC2)C1=O | 26.5 µM
29 | CC(C)(C)OC(=O)NCC1CCCN(C(=O)CN2CN(c3ccccc3)C3(CCN(C(=O)c4ccc(C(C)(C)C)cc4)CC3)C2=O)C1 (centres undefined) | 9.5 µM
30 | CC1CCCN(C(=O)CN2CN(c3ccccc3)C3(CCN(C(=O)c4ccc(C(C)(C)C)cc4)CC3)C2=O)C1 (centres undefined) | 12 µM
31 | CC(C)(C)c1ccc(C(=O)N2CCC3(CC2)C(=O)N(CC(=O)N2CCN(S(=O)(=O)c4ccccc4)CC2)CN3c2ccccc2)cc1 | 15 µM
32 | CS(=O)(=O)N1CCN(C(=O)CN2CN(c3ccccc3)C3(CCN(C(=O)c4ccc(C5CCCCC5)cc4)CC3)C2=O)CC1 | 6.3 µM
33 | CC(C)(C)c1ccc(C(=O)N2CCC3(CC2)C(=O)N(CC(=O)NCCCCCN)CN3c2ccccc2)cc1 | 7.7 µM
34 | CC(C)(C)OC(=O)NCC1CCN(C(=O)CN2CN(c3ccccc3)C3(CCN(C(=O)c4ccc(C(C)(C)C)cc4)CC3)C2=O)CC1 | 4.2 µM
35 | CC(C)(C)OC(=O)NCCCNC(=O)CN1CN(c2ccccc2)C2(CCN(C(=O)c3ccc(C4CCCCC4)cc3)CC2)C1=O | 3.7 µM
36 | NC(=O)C1CCCN(C(=O)CN2CN(c3ccccc3)C3(CCN(C(=O)c4ccc(C5CCCCC5)cc4)CC3)C2=O)C1 (centres undefined) | 3.1 µM
37 | CC(C)(C)c1ccc(C(=O)N2CCC3(CC2)C(=O)N(CC(=O)NCCCCO)CN3c2ccccc2)cc1 | 8.3 µM
38 | CC(C)(C)OC(=O)NCCCNC(=O)CN1CN(c2ccccc2)C2(CCN(C(=O)c3ccc(C(C)(C)C)cc3)CC2)C1=O | 3.2 µM
39 | CC(C)(C)c1ccc(C(=O)N2CCC3(CC2)C(=O)N(CC(=O)N2CCC(CCO)CC2)CN3c2ccccc2)cc1 | 2.6 µM
40 | O=C(CN1CN(c2ccccc2)C2(CCN(C(=O)c3ccc(C4CCCCC4)cc3)CC2)C1=O)N1CCNCC1 | 6.5 µM

Row | SMILES | IC50
41 | CC1CCCN(C(=O)CN2CN(c3ccccc3)C3(CCN(C(=O)c4ccc(C5CCCCC5)cc4)CC3)C2=O)C1 (centres undefined) | 3.6 µM
42 | CC1(C)CC(OC(=O)CN2CN(c3ccccc3)C3(CCN(C(=O)c4ccc(C(C)(C)C)cc4)CC3)C2=O)CC(C)(C)N1 | 1.3 µM
43 | COC(=O)CNC(=O)CN1CN(c2ccccc2)C2(CCN(C(=O)c3ccc(C(C)(C)C)cc3)CC2)C1=O | 16.6 µM
44 | CC(C)(C)c1ccc(C(=O)N2CCC3(CC2)C(=O)N(CC(=O)N2CCN(S(C)(=O)=O)CC2)CN3c2ccccc2)cc1 | 19 µM
45 | CCOC(=O)C1CCN(C(=O)CN2CN(c3ccccc3)C3(CCN(C(=O)c4ccc(C(C)(C)C)cc4)CC3)C2=O)CC1 | 3.1 µM
46 | CC(C)(C)c1ccc(C(=O)N2CCC3(CC2)C(=O)N(CC(=O)NCCN)CN3c2ccccc2)cc1 | 59 µM
47 | CC(C)(C)OC(=O)NC1CCCN(C(=O)CN2CN(c3ccccc3)C3(CCN(C(=O)c4ccc(C5CCCCC5)cc4)CC3)C2=O)C1 (centres undefined) | 4.4 µM
48 | CC(C)(C)c1ccc(C(=O)N2CCC3(CC2)C(=O)N(CC(=O)N2CCCC(C(N)=O)C2)CN3c2ccccc2)cc1 (centres undefined) | 16.9 µM
49 | CC(C)(C)c1ccc(C(=O)N2CCC3(CC2)C(=O)N(CC(=O)N2CCC(CO)CC2)CN3c2ccccc2)cc1 | 4 µM
50 | CC(C)(C)OC(=O)NCCNC(=O)CN1CN(c2ccccc2)C2(CCN(C(=O)c3ccc(C4CCCCC4)cc3)CC2)C1=O | 13.7 µM
51 | CCN(CC)C(=O)C1CCCN(C(=O)CN2CN(c3ccccc3)C3(CCN(C(=O)c4ccc(C(C)(C)C)cc4)CC3)C2=O)C1 (centres undefined) | 8.7 µM
52 | CC(C)(C)c1ccc(C(=O)N2CCC3(CC2)C(=O)N(CC(=O)N2CCCCC2CCO)CN3c2ccccc2)cc1 (centres undefined) | 6.1 µM
53 | CC(C)(C)c1ccc(C(=O)N2CCC3(CC2)C(=O)N(CC(=O)NCCCNS(C)(=O)=O)CN3c2ccccc2)cc1 | 10.4 µM
54 | O=C(CN1CN(c2ccccc2)C2(CCN(C(=O)c3ccc(C4CCCCC4)cc3)CC2)C1=O)N1CCN(S(=O)(=O)c2ccccc2)CC1 | 14.2 µM
55 | CC(C)(C)OC(=O)NCC1CCN(C(=O)CN2CN(c3ccccc3)C3(CCN(C(=O)c4ccc(C5CCCCC5)cc4)CC3)C2=O)CC1 | 2.5 µM
56 | CS(=O)(=O)NCCNC(=O)CN1CN(c2ccccc2)C2(CCN(C(=O)c3ccc(C4CCCCC4)cc3)CC2)C1=O | 7 µM
57 | CCC1CCCN(C(=O)CN2CN(c3ccccc3)C3(CCN(C(=O)c4ccc(C5CCCCC5)cc4)CC3)C2=O)C1 (centres undefined) | 2.6 µM
58 | CCC1CCCN(C(=O)CN2CN(c3ccccc3)C3(CCN(C(=O)c4ccc(C(C)(C)C)cc4)CC3)C2=O)C1 (centres undefined) | 3.9 µM
59 | CC(C)(C)c1ccc(C(=O)N2CCC3(CC2)C(=O)N(CC(=O)NCCC(=O)O)CN3c2ccccc2)cc1 | 23.6 µM
